# Tested on: arachidonic acid-induced inflammatory reaction, mouse ear
# Assay: Arachidonic Acid Mouse Ear Test
# Assay type: in vivo, Charles River, female, CD, (SD) BR mice
# Conditions: topical, 30 minutes prior to AA challenge; for Tissue Wt.: 6 mm punch biopsy 1 hour after AA, mean ± standard error; for % Inhibition: biopsy 1 hour after AA
# Source text: A compound of formula I may be utilized to treat hyperoroliferative skin disease in a mammal. As used herein, "hyperproliferative skin disease" means any condition a symptom of which is accelerated skin cell production, flaking, scales or papular lesions. Representative examples of hyperproliferative skin diseases include osoriasis, eczema, dandruff and the like. […] The Arachidonic Acid Mouse Ear Test is a recognized model for assessing the effectiveness of compounds for the treatment of hyperproliferative skin disease.
# Charles River, female, CD, (SD) BR mice, 6 weeks old, are caged 8/group and allowed to acclimate 1-3 weeks prior to use.
# Arachidonic acid (AA) is dissolved in reagent grade acetone (2 mg/0.01 ml) and stored at -20° C. for a maximum of 1 week prior to use. Inflammatory reactions are induced by applying 10 μl of AA to both surfaces of one ear (4 mg total).
# Test drugs are dissolved in either reagent grade acetone or acueous ethanol (only if insoluble in acetone) at the same doses selected by Opas et al., Fed. Proc. 43, Abstract 2983, P. 1927 (1984) and Young et al., J. Invest. Dermatol. 82, pp. 367-371 (1984). These doses are employed to ensure maximum responses and to overcome any difference in topical absorption which could occur with any drug applied in an aqueous ethanol vehicle. The test drug is applied 30 minutes prior to challenge with AA.
# The severity of the skin reaction is measured as a function of increased ear weight. A 6 mm punch biopsy is removed 1 hour after AA challenge and weighed to the nearest 0.1 mg. Mean ± standard error and all possible comparisons are made via Duncan's Multiple Range Statistic.
smiles,measurement,setting,value
"O=C1c2cccnc2N(c2ccccc2)C(=O)C12CCCCO2 (centres unmarked) [1-Phenyl-3',4',5',6'-tetrahydro-spiro-[1,8-naphthyridine-3,2'-(2H)pyran]-2,4-dione]",Tissue Wt.,dose 0.125 mg/ear,4.86 ± 0.39 mg
same,% Inhibition,dose 0.125 mg/ear,30%
same,Tissue Wt.,dose 0.25 mg/ear,4.97 ± 0.7 mg
same,% Inhibition,dose 0.25 mg/ear,28%
same,Tissue Wt.,dose 0.5 mg/ear,4.39 ± 0.62 mg
same,% Inhibition,dose 0.5 mg/ear,37%
same,Tissue Wt.,dose 1.0 mg/ear,2.27 ± 0.29 mg
same,% Inhibition,dose 1.0 mg/ear,67%
